Values of other authors as cited in article PMC6044708 (ACS Omega, 2016).

Experiments:
E. coli = conditions: Gram (−), ATCC strain; reference compound
P. aeruginosa = conditions: Gram (−), ATCC strain; reference compound
S. aureus = conditions: Gram (+), ATCC strain; reference compound
B. subtilis = conditions: Gram (+), ATCC strain; reference compound
Gram-positive bacteria = conditions: comparison in words

Substance | MIC E. coli (E. coli) [µg/mL] | MIC P. aeruginosa (P. aeruginosa) | MIC S. aureus (S. aureus) [µg/mL] | MIC B. subtilis (B. subtilis) [µg/mL] | activity compared with the parent compound teixobactin (1) (Gram-positive bacteria) | activity compared with Arg10–teixobactin (2) (Gram-positive bacteria)
Arg10–teixobactin [Arg10–teixobactin (2)] | 64 | no activity | 2 | 0.5 | 1 order of magnitude less active | 
Lys10–teixobactin |  |  |  |  |  | more active
